Source: publication PMC5290327, “SC83288 is a clinical development candidate for the treatment of severe malaria” (Nature Communications, 2017)

What was measured:
Test in all cases: KINOMEscan
Type in all cases: binding
Conditions in all cases: read-out: Remaining enzyme activity
MAP3K15 = biological target: T1, MAP3K15 (Homo sapiens, UniProt Q6ZN16)
T1 construct: purchased Ambit (DiscoverX) KINOMEscan; Cerep
Outline: (§1)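 Each kinase, tagged with DNA, is partitioned between test compound and an immobilized active-site ligand; qPCR of the eluate reports the bound fraction. SC81458 dosed once, 10 μM final concentration.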

PCTK1 = biological target: T2, PCTK1 (Homo sapiens, UniProt Q00536)
T2 construct: purchased Ambit (DiscoverX) KINOMEscan; Cerep
Outline: as §1

YANK2 = biological target: T3, YANK2 (Homo sapiens, UniProt Q9NY57)
T3 construct: purchased Ambit (DiscoverX) KINOMEscan; Cerep
Outline: as §1

ANKK1 = biological target: T4, ANKK1 (Homo sapiens, UniProt Q8NFD2)
T4 construct: purchased Ambit (DiscoverX) KINOMEscan; Cerep
Outline: as §1

EPHB3 = biological target: T5, EPHB3 (Homo sapiens, UniProt P54753)
T5 construct: purchased Ambit (DiscoverX) KINOMEscan; Cerep
Outline: as §1

AURKC = biological target: T6, AURKC (Homo sapiens, UniProt Q9UQB9)
T6 construct: purchased Ambit (DiscoverX) KINOMEscan; Cerep
Outline: as §1

FLT3(K663Q) = biological target: T7, FLT3(K663Q) (Homo sapiens, UniProt P36888, K663Q)
T7 construct: purchased Ambit (DiscoverX) KINOMEscan; Cerep
Outline: as §1

p38-gamma = biological target: T8, p38-gamma (Homo sapiens, UniProt P53778)
T8 construct: purchased Ambit (DiscoverX) KINOMEscan; Cerep
Outline: as §1

DDR1 = biological target: T9, DDR1 (Homo sapiens, UniProt Q08345)
T9 construct: purchased Ambit (DiscoverX) KINOMEscan; Cerep
Outline: as §1

RET = biological target: T10, RET (Homo sapiens, UniProt P07949)
T10 construct: purchased Ambit (DiscoverX) KINOMEscan; Cerep
T10 sequence (P07949 29-1114): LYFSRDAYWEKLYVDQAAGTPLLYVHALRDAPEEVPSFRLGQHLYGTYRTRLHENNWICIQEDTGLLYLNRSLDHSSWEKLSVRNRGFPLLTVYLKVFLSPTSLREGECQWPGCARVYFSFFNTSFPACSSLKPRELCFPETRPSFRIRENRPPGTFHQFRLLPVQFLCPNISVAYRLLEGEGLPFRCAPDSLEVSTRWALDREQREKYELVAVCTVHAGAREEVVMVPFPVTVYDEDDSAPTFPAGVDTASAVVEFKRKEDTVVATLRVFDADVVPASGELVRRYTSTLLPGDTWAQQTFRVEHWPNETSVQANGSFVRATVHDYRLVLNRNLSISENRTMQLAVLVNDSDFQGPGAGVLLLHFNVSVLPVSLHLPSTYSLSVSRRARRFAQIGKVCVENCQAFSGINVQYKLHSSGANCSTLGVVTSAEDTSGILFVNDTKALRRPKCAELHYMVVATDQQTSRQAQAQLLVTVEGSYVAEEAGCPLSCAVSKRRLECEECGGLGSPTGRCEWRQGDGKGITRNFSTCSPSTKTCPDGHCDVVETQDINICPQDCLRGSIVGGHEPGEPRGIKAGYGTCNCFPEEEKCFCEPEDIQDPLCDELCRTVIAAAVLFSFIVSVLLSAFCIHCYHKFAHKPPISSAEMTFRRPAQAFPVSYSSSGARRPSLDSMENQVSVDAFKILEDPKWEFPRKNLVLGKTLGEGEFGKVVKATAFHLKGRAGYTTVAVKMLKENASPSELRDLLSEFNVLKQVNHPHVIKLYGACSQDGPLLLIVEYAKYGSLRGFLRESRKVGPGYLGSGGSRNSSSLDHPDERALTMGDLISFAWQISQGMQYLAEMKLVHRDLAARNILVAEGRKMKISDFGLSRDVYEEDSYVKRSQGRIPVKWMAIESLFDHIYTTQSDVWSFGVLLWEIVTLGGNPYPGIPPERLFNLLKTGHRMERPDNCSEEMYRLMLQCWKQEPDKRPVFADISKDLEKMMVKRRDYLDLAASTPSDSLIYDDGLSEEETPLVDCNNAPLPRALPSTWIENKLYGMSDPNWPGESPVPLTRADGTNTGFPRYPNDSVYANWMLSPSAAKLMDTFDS
Outline: as §1

HIPK1 = biological target: T11, HIPK1 (Homo sapiens, UniProt Q86Z02)
T11 construct: purchased Ambit (DiscoverX) KINOMEscan; Cerep
Outline: as §1

PKN1 = biological target: T12, PKN1 (Homo sapiens, UniProt Q16512)
T12 construct: purchased Ambit (DiscoverX) KINOMEscan; Cerep
Outline: as §1

CSNK1g1 = biological target: T13, CSNK1g1 (Homo sapiens, UniProt Q9HCP0)
T13 construct: purchased Ambit (DiscoverX) KINOMEscan; Cerep
T13 sequence (Q9HCP0 whole entry): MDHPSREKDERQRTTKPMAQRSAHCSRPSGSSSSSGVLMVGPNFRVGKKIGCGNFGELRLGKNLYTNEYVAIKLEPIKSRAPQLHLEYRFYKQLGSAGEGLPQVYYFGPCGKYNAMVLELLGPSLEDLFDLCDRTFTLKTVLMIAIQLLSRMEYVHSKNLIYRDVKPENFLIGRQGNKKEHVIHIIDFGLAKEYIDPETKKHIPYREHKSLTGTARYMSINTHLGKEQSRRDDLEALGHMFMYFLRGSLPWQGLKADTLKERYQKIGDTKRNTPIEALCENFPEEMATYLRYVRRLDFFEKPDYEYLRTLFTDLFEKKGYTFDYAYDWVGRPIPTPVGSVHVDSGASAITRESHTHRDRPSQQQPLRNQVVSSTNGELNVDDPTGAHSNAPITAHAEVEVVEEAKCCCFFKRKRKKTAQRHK
Outline: as §1

SRPK2 = biological target: T14, SRPK2 (Homo sapiens, UniProt P78362)
T14 construct: purchased Ambit (DiscoverX) KINOMEscan; Cerep
Outline: as §1

PIM1 = biological target: T15, PIM1 (Homo sapiens, UniProt P11309)
T15 construct: purchased Ambit (DiscoverX) KINOMEscan; Cerep
Outline: as §1

TGFBR2 = biological target: T16, TGFBR2 (Homo sapiens, UniProt P37173)
T16 construct: purchased Ambit (DiscoverX) KINOMEscan; Cerep
Outline: as §1

STK33 = biological target: T17, STK33 (Homo sapiens, UniProt Q9BYT3)
T17 construct: purchased Ambit (DiscoverX) KINOMEscan; Cerep
Outline: as §1

DYRK1b = biological target: T18, DYRK1b (Homo sapiens, UniProt Q9Y463)
T18 construct: purchased Ambit (DiscoverX) KINOMEscan; Cerep
Outline: as §1

TSSK1B = biological target: T19, TSSK1B (Homo sapiens, UniProt Q9BXA7)
T19 construct: purchased Ambit (DiscoverX) KINOMEscan; Cerep
Outline: as §1

MKNK1 = biological target: T20, MKNK1 (Homo sapiens, UniProt Q9BUB5)
T20 construct: purchased Ambit (DiscoverX) KINOMEscan; Cerep
Outline: as §1

ABL1(F317I) = biological target: T21, ABL1(F317I) (Homo sapiens, UniProt P00519, F317I)
T21 construct: purchased Ambit (DiscoverX) KINOMEscan; Cerep
Outline: as §1

IRAK1 = biological target: T22, IRAK1 (Homo sapiens, UniProt P51617)
T22 construct: purchased Ambit (DiscoverX) KINOMEscan; Cerep
Outline: as §1

PRKD3 = biological target: T23, PRKD3 (Homo sapiens, UniProt O94806)
T23 construct: purchased Ambit (DiscoverX) KINOMEscan; Cerep
T23 sequence (O94806 whole entry): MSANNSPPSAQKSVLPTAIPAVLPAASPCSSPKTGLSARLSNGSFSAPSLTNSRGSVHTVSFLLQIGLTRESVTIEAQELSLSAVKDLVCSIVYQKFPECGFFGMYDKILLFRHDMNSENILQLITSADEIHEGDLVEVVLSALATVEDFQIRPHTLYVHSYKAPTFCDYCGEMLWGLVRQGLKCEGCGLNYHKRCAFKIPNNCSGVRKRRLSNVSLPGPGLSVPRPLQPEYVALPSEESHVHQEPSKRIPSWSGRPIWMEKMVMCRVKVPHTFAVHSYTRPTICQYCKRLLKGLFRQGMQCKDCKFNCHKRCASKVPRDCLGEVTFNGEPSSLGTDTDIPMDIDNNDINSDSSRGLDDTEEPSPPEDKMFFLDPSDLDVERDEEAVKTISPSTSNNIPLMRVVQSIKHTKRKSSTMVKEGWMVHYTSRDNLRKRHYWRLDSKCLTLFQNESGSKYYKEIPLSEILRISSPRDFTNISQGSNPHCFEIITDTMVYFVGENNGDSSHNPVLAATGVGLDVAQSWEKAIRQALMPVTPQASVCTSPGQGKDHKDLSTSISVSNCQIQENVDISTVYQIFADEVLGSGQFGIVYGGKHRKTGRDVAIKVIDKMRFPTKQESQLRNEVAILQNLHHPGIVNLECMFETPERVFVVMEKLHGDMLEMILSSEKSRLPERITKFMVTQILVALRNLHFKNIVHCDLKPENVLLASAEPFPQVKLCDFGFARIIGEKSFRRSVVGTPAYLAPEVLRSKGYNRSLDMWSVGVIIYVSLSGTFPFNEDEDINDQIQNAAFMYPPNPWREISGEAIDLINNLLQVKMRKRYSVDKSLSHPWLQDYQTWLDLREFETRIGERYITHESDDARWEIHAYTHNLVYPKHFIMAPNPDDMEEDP
Outline: as §1

ACVR1b = biological target: T24, ACVR1b (Homo sapiens, UniProt P36896)
T24 construct: purchased Ambit (DiscoverX) KINOMEscan; Cerep
Outline: as §1

BMX = biological target: T25, BMX (Homo sapiens, UniProt P51813)
T25 construct: purchased Ambit (DiscoverX) KINOMEscan; Cerep
Outline: as §1

DAPK2 = biological target: T26, DAPK2 (Homo sapiens, UniProt Q9UIK4)
T26 construct: purchased Ambit (DiscoverX) KINOMEscan; Cerep
Outline: as §1

TRKb = biological target: T27, TRKb (Homo sapiens, UniProt Q16620)
T27 construct: purchased Ambit (DiscoverX) KINOMEscan; Cerep
Outline: as §1

LOK = biological target: T28, LOK (Homo sapiens, UniProt O94804)
T28 construct: purchased Ambit (DiscoverX) KINOMEscan; Cerep
Outline: as §1

RIOK1 = biological target: T29, RIOK1 (Homo sapiens, UniProt Q9BRS2)
T29 construct: purchased Ambit (DiscoverX) KINOMEscan; Cerep
T29 sequence (Q9BRS2 whole entry): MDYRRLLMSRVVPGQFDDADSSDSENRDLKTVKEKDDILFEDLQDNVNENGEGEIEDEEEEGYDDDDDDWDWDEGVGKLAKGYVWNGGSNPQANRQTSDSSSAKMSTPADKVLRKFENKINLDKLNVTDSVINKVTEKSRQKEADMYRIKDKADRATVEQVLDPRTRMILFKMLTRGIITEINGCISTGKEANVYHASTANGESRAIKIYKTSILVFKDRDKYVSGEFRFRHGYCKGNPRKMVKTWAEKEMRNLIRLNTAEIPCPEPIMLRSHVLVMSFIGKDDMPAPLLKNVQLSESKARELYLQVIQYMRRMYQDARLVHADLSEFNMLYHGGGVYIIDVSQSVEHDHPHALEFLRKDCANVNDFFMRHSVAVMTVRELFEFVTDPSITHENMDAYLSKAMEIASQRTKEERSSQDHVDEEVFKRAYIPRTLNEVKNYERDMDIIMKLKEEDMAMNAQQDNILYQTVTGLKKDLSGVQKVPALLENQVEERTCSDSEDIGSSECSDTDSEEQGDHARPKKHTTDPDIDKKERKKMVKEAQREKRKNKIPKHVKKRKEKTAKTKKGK
Outline: as §1

FGFR4 = biological target: T30, FGFR4 (Homo sapiens, UniProt P22455)
T30 construct: purchased Ambit (DiscoverX) KINOMEscan; Cerep
Outline: as §1

LATS1 = biological target: T31, LATS1 (Homo sapiens, UniProt O95835)
T31 construct: purchased Ambit (DiscoverX) KINOMEscan; Cerep
T31 sequence (O95835 whole entry): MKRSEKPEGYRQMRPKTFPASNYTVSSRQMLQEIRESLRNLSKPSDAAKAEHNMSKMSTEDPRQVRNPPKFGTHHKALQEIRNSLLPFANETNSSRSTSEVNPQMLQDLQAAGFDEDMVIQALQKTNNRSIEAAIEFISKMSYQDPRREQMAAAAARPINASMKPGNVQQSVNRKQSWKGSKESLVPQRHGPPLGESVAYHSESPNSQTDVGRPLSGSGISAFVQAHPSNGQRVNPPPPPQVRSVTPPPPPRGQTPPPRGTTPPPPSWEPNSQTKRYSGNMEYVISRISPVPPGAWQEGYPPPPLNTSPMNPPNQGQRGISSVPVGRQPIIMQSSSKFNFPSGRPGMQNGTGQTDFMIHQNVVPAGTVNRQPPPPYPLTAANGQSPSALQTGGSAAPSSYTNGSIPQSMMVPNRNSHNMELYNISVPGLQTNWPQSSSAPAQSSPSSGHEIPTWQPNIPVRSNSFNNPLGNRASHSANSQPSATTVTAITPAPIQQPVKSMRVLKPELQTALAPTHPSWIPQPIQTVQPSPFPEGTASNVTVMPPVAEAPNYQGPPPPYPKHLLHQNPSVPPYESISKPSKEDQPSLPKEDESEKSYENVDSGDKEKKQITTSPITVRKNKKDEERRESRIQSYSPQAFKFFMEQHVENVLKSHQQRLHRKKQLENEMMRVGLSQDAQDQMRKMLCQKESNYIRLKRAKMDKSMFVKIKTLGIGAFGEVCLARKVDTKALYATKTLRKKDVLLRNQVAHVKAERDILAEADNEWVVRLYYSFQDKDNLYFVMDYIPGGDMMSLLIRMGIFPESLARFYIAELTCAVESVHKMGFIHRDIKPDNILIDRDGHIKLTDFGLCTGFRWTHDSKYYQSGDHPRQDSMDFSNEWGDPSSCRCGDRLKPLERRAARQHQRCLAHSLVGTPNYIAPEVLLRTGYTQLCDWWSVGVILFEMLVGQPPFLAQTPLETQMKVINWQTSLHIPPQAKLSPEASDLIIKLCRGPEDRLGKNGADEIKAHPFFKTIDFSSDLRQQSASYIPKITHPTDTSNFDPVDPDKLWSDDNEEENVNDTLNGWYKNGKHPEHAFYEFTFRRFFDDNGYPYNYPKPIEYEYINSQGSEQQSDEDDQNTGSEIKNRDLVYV
Outline: as §1

AAK1 = biological target: T32, AAK1 (Homo sapiens, UniProt Q2M2I8)
T32 construct: purchased Ambit (DiscoverX) KINOMEscan; Cerep
Outline: as §1

TAOK1 = biological target: T33, TAOK1 (Homo sapiens, UniProt Q7L7X3)
T33 construct: purchased Ambit (DiscoverX) KINOMEscan; Cerep
T33 sequence (Q7L7X3 whole entry): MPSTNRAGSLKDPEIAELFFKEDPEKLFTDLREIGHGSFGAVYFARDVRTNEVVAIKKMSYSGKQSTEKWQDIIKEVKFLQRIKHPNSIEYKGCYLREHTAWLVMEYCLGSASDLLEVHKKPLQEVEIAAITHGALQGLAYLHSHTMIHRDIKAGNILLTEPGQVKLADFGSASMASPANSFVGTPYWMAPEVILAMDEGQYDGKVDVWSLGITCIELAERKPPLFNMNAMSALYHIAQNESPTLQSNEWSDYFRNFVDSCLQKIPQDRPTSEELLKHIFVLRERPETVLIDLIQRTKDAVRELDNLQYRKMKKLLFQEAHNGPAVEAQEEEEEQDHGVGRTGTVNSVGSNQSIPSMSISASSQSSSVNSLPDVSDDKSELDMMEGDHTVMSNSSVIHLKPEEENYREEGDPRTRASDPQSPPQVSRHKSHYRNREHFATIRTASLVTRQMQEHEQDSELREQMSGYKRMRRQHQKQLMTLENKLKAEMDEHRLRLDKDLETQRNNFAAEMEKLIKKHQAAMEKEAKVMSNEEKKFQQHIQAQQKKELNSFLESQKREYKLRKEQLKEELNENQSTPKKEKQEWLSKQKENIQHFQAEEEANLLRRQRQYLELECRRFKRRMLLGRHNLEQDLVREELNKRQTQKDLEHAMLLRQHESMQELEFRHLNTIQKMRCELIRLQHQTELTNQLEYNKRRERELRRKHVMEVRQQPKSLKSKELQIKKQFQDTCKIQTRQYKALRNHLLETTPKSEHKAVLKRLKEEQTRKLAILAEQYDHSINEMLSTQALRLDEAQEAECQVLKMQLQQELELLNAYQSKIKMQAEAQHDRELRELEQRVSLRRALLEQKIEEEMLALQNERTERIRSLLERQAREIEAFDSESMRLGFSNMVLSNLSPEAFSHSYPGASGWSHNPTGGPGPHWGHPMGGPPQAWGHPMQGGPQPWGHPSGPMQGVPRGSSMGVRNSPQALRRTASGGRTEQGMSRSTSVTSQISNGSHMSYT
Outline: as §1

PLK2 = biological target: T34, PLK2 (Homo sapiens, UniProt Q9NYY3)
T34 construct: purchased Ambit (DiscoverX) KINOMEscan; Cerep
Outline: as §1

## CCCCN1CCN(C(=N)c2cccc(NC(=O)Nc3ccc(S(=O)(=O)NCc4ccc(S(N)(=O)=O)cc4)cc3)c2)CC1 [SC81458, 4-(3-(3-((4-butylpiperazin-1-yl)(imino)methyl)phenyl)ureido)-N-(4-sulfamoylbenzyl) benzenesulfonamide]
MAP3K15
  remaining binding at 10 µM: 100%
PCTK1
  remaining binding at 10 µM: 92%
YANK2
  remaining binding at 10 µM: 99%
ANKK1
  remaining binding at 10 µM: 99%
EPHB3
  remaining binding at 10 µM: 98%
AURKC
  remaining binding at 10 µM: 73%
FLT3(K663Q)
  remaining binding at 10 µM: 93%
p38-gamma
  remaining binding at 10 µM: 85%
DDR1
  remaining binding at 10 µM: 91%
RET
  remaining binding at 10 µM: 89%
HIPK1
  remaining binding at 10 µM: 100%
PKN1
  remaining binding at 10 µM: 100%
CSNK1g1
  remaining binding at 10 µM: 100%
SRPK2
  remaining binding at 10 µM: 93%
PIM1
  remaining binding at 10 µM: 100%
TGFBR2
  remaining binding at 10 µM: 80%
STK33
  remaining binding at 10 µM: 100%
DYRK1b
  remaining binding at 10 µM: 87%
TSSK1B
  remaining binding at 10 µM: 97%
MKNK1
  remaining binding at 10 µM: 71%
ABL1(F317I)
  remaining binding at 10 µM: 100%
IRAK1
  remaining binding at 10 µM: 95%
PRKD3
  remaining binding at 10 µM: 100%
ACVR1b
  remaining binding at 10 µM: 100%
BMX
  remaining binding at 10 µM: 100%
DAPK2
  remaining binding at 10 µM: 100%
TRKb
  remaining binding at 10 µM: 100%
LOK
  remaining binding at 10 µM: 100%
RIOK1
  remaining binding at 10 µM: 75%
FGFR4
  remaining binding at 10 µM: 100%
LATS1
  remaining binding at 10 µM: 82%
AAK1
  remaining binding at 10 µM: 100%
TAOK1
  remaining binding at 10 µM: 100%
PLK2
  remaining binding at 10 µM: 100%
